Laboratory results taken from patent EP3046573B1, “AMYLIN ANALOGUES” (Zealand Pharma A/S, priority 2013, dated 2015).
Like-named read-outs stand apart in the source and are kept apart here. Numbered stars: 1 amine (or outer) side, 2 acyl side, 3 side chain; on linkers, the order of the positions; unused ones are H or OH. Bridge positions count the residues as written; N and C are the ends. Square brackets hold non-standard residues; d marks the D form. Peptide text beside a SMILES is read from it. * marks the point of attachment. C20 diacid = O=C(O)CCCCCCCCCCCCCCCCCCC(=O)*; γGlu = O=C(O)[C@H](CCC(=O)[*:2])N[*:1]; NMeI = CC[C@H](C)[C@H](NC)C(=O)O; Sar = CNCC(=O)O

Key:
[1] = molecular target: T1, human calcitonin receptor (hCTR2) (Homo sapiens, UniProt P30988); assay: hCTR2 assay: induction of cAMP (AlphaScreen cAMP Assay kit) in COS7 cells expressing hCTR2; type: cell-based
T1 construct: expressed in transfected cells
T1 sequence (P30988 25-474): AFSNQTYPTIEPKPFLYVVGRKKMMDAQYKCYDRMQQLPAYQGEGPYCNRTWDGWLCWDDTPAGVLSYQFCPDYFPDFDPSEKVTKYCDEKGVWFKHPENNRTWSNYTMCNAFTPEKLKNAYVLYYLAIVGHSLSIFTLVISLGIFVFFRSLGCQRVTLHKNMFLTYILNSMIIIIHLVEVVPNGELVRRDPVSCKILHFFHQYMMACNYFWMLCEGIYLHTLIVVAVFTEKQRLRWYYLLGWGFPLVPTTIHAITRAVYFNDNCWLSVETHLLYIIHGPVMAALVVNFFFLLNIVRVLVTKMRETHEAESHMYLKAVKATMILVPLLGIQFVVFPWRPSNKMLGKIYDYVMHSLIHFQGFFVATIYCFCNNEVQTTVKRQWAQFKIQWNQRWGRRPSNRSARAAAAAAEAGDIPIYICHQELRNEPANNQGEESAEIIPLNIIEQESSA
Outline: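 COS7 stable hCTR2 clone (RAMP-free); peptide dose-response 15 min 37° C in Tyrode pH 7.4 + 100 µM IBMX + 0.1% casein; lysis 10 min RT; AlphaScreen cAMP; 4PL fit.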

[2] = molecular target: T2, human amylin receptor 3 (hAMYR3) consisting of hCTR2 co-expressed with human Receptor Activity Modifying Protein 3 (hRAMP3) (Homo sapiens, UniProt O60896+P30988); assay: hAMYR3 assay: induction of cAMP (AlphaScreen cAMP Assay kit) in COS7 cells expressing hAMYR3; type: cell-based
T2 construct: expressed in transfected cells
T2 sequence (P30988 25-474): T1 sequence (P30988 25-474)
T2 sequence (O60896 24-148 partner): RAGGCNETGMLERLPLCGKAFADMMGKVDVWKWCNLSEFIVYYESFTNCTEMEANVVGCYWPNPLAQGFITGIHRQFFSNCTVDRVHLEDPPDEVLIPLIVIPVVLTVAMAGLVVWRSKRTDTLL
Outline: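 Stable COS7 clone co-expressing hCTR2 and hRAMP3, stimulated 15 min at 37° C with increasing peptide in Tyrode buffer pH 7.4 with 100 µM IBMX and 0.1% casein. cAMP measured by AlphaScreen after lysis; EC50 and % efficacy versus pramlintide from 4PL fit.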

[3] = Solubility assessment (turbidity absorbance at 325 nm); type: physicochemical; details: stock 2 mg/ml diluted 1:1, ambient temperature (typically 25°C), n=1; for Solubility, Acetate buffer pH 4: 100 mM acetate buffer pH 4.0; for Solubility, Acetate buffer pH 5: 100 mM acetate buffer pH 5.0; for Solubility, Histidine buffer pH 6: 100 mM histidine buffer pH 6.0; for Solubility, Histidine buffer pH 7: 100 mM histidine buffer pH 7.0; for Solubility, Phosphate buffer pH 6: 100 mM phosphate buffer pH 6.0; for Solubility, Phosphate buffer pH 7: 100 mM phosphate buffer pH 7.0; for Solubility, Phosphate buffer pH 7.5: 100 mM phosphate buffer pH7.5
Outline: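 Peptide stock (2 mg/ml) in water acidified to pH 2.5 with HCl was diluted 1:1 into 100 mM acetate (pH 4.0, 5.0), histidine (pH 6.0, 7.0) or phosphate (pH 6.0, 7.0, 7.5) buffer. A280 and A325 were read at about 25°C, n=1. A325 ≤ 0.02 meant solubility ≥ 1 mg/ml.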

EC50 ([1]; cAMP induction in COS7 cells expressing hCTR2, average of a minimum of 3 determinations, read-out: hCTR2 EC50) [nM]	EC50 ([2]; cAMP induction in COS7 cells expressing hAMYR3, average of a minimum of 3 determinations, read-out: hAMY R3 EC50) [nM]	Structure (SMILES)	EC50 [1] [nM]	EC50 [2] [nM]	Solubility, Acetate buffer pH 4 [3]	Solubility, Acetate buffer pH 5 [3]	Solubility, Histidine buffer pH 6 [3]	Solubility, Histidine buffer pH 7 [3]	Solubility, Phosphate buffer pH 6 [3]	Solubility, Phosphate buffer pH 7 [3]	Solubility, Phosphate buffer pH 7.5 [3]
–	–	CC[C@H](C)[C@@H](C(=O)N[C@@H](CC(C)C)C(=O)N[C@@H](CO)C(=O)N[C@@H](CO)C(=O)N[C@H](C(=O)N[C@@H](CC(N)=O)C(=O)N[C@H](C(=O)NCC(=O)N[C@@H](CO)C(=O)N[C@@H](CC(N)=O)C(=O)N[C@H](C(=O)N[C@@H](Cc1ccc(O)cc1)C(=O)NC)[C@@H](C)O)C(C)C)[C@@H](C)O)N(C)C(=O)[C@H](C)NC(=O)CN(C)C(=O)[C@H](Cc1ccccc1)NC(=O)[C@H](CC(N)=O)NC(=O)[C@H](CC(N)=O)NC(=O)[C@H](CO)NC(=O)[C@H](CO)NC(=O)[C@H](CCCNC(=N)N)NC(=O)[C@H](Cc1c[nH]cn1)NC(=O)[C@H](CC(C)C)NC(=O)[C@H](Cc1ccccc1)NC(=O)[C@H](CCC(=O)O)NC(=O)[C@H](C)NC(=O)[C@H](CC(C)C)NC(=O)[C@H](CCCNC(=N)N)NC(=O)[C@H](CCC(N)=O)NC(=O)[C@@H](NC(=O)[C@H](C)NC(=O)[C@@H]1CSSC[C@H](NC(=O)[C@H](CCCNC(=N)N)NC(=O)CC[C@H](NC(=O)CCCCCCCCCCCCCCCCCCC(=O)O)C(=O)O)C(=O)N[C@@H](CC(N)=O)C(=O)N[C@@H]([C@@H](C)O)C(=O)N[C@@H](C)C(=O)N[C@@H]([C@@H](C)O)C(=O)N1)[C@@H](C)O [Compound 154, [19CD]-isoGlu-RC()NTATC()ATQRLAEFLHRSSNNF-Gly(Me)-A-Ile(Me)-LSSTNVGSNTY-NHMe] ({C20 diacid-γGlu}-RCNTATCATQRLAEFLHRSSNNF[Sar]A[NMeI]LSSTNVGSNTY-NHMe; disulfide 2-7)	0.55	6.3	SS (SS indicates solubility ≥ 1mg/ml)	SS (SS indicates solubility ≥ 1mg/ml)	SS (SS indicates solubility ≥ 1mg/ml)	II (II indicates solubility ≤ 1 mg/ml)	II (II indicates solubility ≤ 1 mg/ml)	II (II indicates solubility ≤ 1 mg/ml)	II (II indicates solubility ≤ 1 mg/ml)
0.67	5.3	CC[C@H](C)[C@@H](C(=O)N[C@@H](CC(C)C)C(=O)N[C@@H](CO)C(=O)N[C@@H](CO)C(=O)N[C@H](C(=O)N[C@@H](CC(N)=O)C(=O)N[C@H](C(=O)NCC(=O)N[C@@H](CO)C(=O)N[C@@H](CC(N)=O)C(=O)N[C@H](C(=O)N[C@@H](Cc1ccc(O)cc1)C(=O)NC)[C@@H](C)O)C(C)C)[C@@H](C)O)N(C)C(=O)CN(C)C(=O)[C@H](Cc1ccccc1)NC(=O)[C@H](CC(N)=O)NC(=O)[C@H](CC(N)=O)NC(=O)[C@H](CO)NC(=O)[C@H](CO)NC(=O)[C@H](CCCNC(=N)N)NC(=O)[C@H](Cc1c[nH]cn1)NC(=O)[C@H](CC(C)C)NC(=O)[C@H](Cc1ccccc1)NC(=O)[C@H](CCC(=O)O)NC(=O)[C@H](C)NC(=O)[C@H](CC(C)C)NC(=O)[C@H](CCCNC(=N)N)NC(=O)[C@H](CCC(N)=O)NC(=O)[C@@H](NC(=O)[C@H](C)NC(=O)[C@@H]1CSSC[C@H](NC(=O)[C@H](CCCNC(=N)N)NC(=O)CC[C@H](NC(=O)CCCCCCCCCCCCCCCCCCC(=O)O)C(=O)O)C(=O)N[C@@H](CC(N)=O)C(=O)N[C@@H]([C@@H](C)O)C(=O)N[C@@H](C)C(=O)N[C@@H]([C@@H](C)O)C(=O)N1)[C@@H](C)O [Compound 155, [19CD]-isoGlu-RC()NTATC()ATQRLAEFLHRSSNNF-Gly(Me)-Ile(Me)-LSSTNVGSNTY-NHMe] ({C20 diacid-γGlu}-RCNTATCATQRLAEFLHRSSNNF[Sar][NMeI]LSSTNVGSNTY-NHMe; disulfide 2-7)	–	–	SS (SS indicates solubility ≥ 1mg/ml)	SS (SS indicates solubility ≥ 1mg/ml)	II (II indicates solubility ≤ 1 mg/ml)	II (II indicates solubility ≤ 1 mg/ml)	II (II indicates solubility ≤ 1 mg/ml)	II (II indicates solubility ≤ 1 mg/ml)	II (II indicates solubility ≤ 1 mg/ml)
